In PMC8955525 (2022):

Experiments:
[1] = system: native r(CUG)10 (r10) (RNA, repeat) CUGCUGCUGCUGCUGCUGCUGCUGCUGCUG; assay: UV melting, 260 nm; conditions: 100 mM NaCl, 10 mM sodium phosphate, pH 7.0, 1.5 µM RNA, L/M = 1, Tm 55.8 to 57.4 °C buffer, Tm 57.5 (L/M 0), 58.7 (L/M 1), 60.7 °C (L/M 16)
[2] = system: FM1 r(CUG)10 (FM1 CUG × 10, r10FAM), annealed (RNA, repeat, fluorescein (fam) covalently incorporated between C13 and U14 (5th CUG repeat, hairpin loop)) CUGCUGCUGCUGCUGCUGCUGCUGCUGCUG; assay: fluorometer fluorescence titration, sigmoidal fit; conditions: none stated; nuclease-free water, 25 °C; 200 nM RNA; apparent; Langmuir fit 671 nM, quadratic fit 247 nM
[3] = system: native r(CUG)7 (r7) (RNA, repeat) CUGCUGCUGCUGCUGCUGCUG; assay: UV melting, 260 nm; conditions: 100 mM NaCl; 10 mM sodium phosphate, pH 7.0; 1.5 µM RNA; L/M = 1; Tm 59.8 to 64.0 °C
[4] = system: FM1 r(CUG)10 (FM1 CUG × 10, r10FAM), annealed (RNA, repeat, fluorescein (fam) covalently incorporated between C13 and U14 (5th CUG repeat, hairpin loop)) CUGCUGCUGCUGCUGCUGCUGCUGCUGCUG; assay: fluorescence microplate titration, sigmoidal fit; conditions: none stated; nuclease-free water, room temperature; 200 nM RNA; apparent
[5] = system: FM1 r(CUG)10 (FM1 CUG × 10, r10FAM), annealed (RNA, repeat, fluorescein (fam) covalently incorporated between C13 and U14 (5th CUG repeat, hairpin loop)) CUGCUGCUGCUGCUGCUGCUGCUGCUGCUG; assay: UV melting, 260 nm; conditions: 100 mM NaCl; 10 mM sodium phosphate, pH 7.0; 1.5 µM RNA; L/M = 1; Tm 55.8 to 57.4 °C
[6] = system: FM1 r(CUG)10 (FM1 CUG × 10, r10FAM), annealed (RNA, repeat, fluorescein (fam) covalently incorporated between C13 and U14 (5th CUG repeat, hairpin loop)) CUGCUGCUGCUGCUGCUGCUGCUGCUGCUG; assay: fluorescence melting of internal FAM; conditions: none stated; nuclease-free water; 200 nM RNA; L/M = 1; Tm 52.2 to 54.9 °C; lower Tm at L/M > 1

binding [1] | Kd [2] [µM] | ΔTm [3] [°C] | Kd [4] [µM] | ΔTm [5] | ΔTm [6] [°C] | SMILES
yes | 0.945 | 4 | 0.928 | ~ 1.5 °C | 2.7 | CN[C@@H]1[C@@H](O)[C@@H](O[C@@H]2[C@@H](O)[C@H](O[C@H]3OC(CN)=CC[C@H]3N)[C@@H](N)C[C@H]2N)OC[C@]1(C)O
 |  |  | 1.555 |  |  | NC[C@H]1O[C@H](O[C@H]2[C@H](O)[C@@H](O[C@H]3O[C@H](CO)[C@@H](O)[C@H](N)[C@H]3O)[C@H](N)C[C@@H]2N)[C@H](O)[C@@H](O)[C@@H]1O
 |  |  | 1.054 |  |  | NC[C@@H]1O[C@H](O[C@H]2[C@@H](O)[C@H](O[C@@H]3[C@@H](O)[C@H](N)C[C@H](N)[C@H]3O[C@H]3O[C@H](CN)[C@@H](O)[C@H](O)[C@H]3N)O[C@@H]2CO)[C@H](N)[C@@H](O)[C@@H]1O
